In brackets after ≈: the same amount, converted by molar mass. Blank lines part the entries; values can stand above or below the compound they belong to.
Legend:
Experiment in all cases: ≥ marks a high value that may be exact or a test limit, other limits are often not marked, values filed in µg/mL are converted to µM
[1] = system: Staphylococcus aureus ATCC 33591
[2] = system: Enterococcus faecalis JCM 8726
[3] = system: Saccharomyces cerevisiae KK4
[4] = system: Bacillus subtilis IFO 3336
[5] = system: Aspergillus niger IFO 4416
[6] = system: Candida albicans IFO 1385
[7] = system: Agrobacterium tumefaciens LBA 4404
[8] = system: Escherichia coli IFO 3301
Bacillus cereus IFO 3514 = system: Bacillus cereus IFO 3514
[9] = system: Salmonella typhimurium IFO 12529
[10] = system: Levilactobacillus brevis IFO 3345
[11] = system: Pseudomonas aeruginosa IFO 3445
[12] = system: Kitasatospora kifunensis MN1
Candida boidinii MIP 104 = system: Candida boidinii MIP 104
[13] = system: Geobacillus stearothermophilus IFO12550
[14] = system: Staphylococcus aureus IFO 13276
Fusobacterium nucleatum = system: Fusobacterium nucleatum
[15] = system: Staphylococcus aureus T7/5
[16] = system: Peptostreptococcus anaerobius
[17] = system: Staphylococcus aureus T27/9
[18] = system: Salmonella enterica subsp. enterica serovar Typhimurium LT2
[19] = system: Clostridium tertium ATCC 19465
[20] = system: Prevotella melaninogenica
Cutibacterium acnes = system: Cutibacterium acnes
[21] = system: Cutibacterium acnes ATCC 11828
[22] = system: Enterobacter cloacae HNTCC 53001
[23] = system: Staphylococcus aureus T7/20
[24] = system: Staphylococcus aureus NCTC 8325
[25] = system: Enterococcus faecalis ATCC 29212
[26] = system: Fusobacterium varium ATCC 27725
[27] = system: Peptoniphilus asaccharolyticus ATCC 29743
[28] = system: Pseudomonas aeruginosa ATCC 27853
[29] = system: Proteus mirabilis ATCC 25933
Bacteroides fragilis = system: Bacteroides fragilis
[30] = system: Escherichia coli ATCC 25922
[31] = system: Staphylococcus epidermidis RP62A
[32] = system: Candida albicans ATCC 90028
[33] = system: Klebsiella pneumoniae KK3 9904
[34] = system: Clostridium perfringens ATCC 10543
[35] = system: Bacteroides fragilis ATCC 25285
Clostridium septicum = system: Clostridium septicum

- MIC [1]: ≥ 33.7 µM
- MIC [2]: 6.74 µM (≈ 10 µg/mL)
- MIC [3]: ≥ 67.4 µM
- MIC [4]: 6.74 µM (≈ 10 µg/mL)
- MIC [5]: ≥ 33.7 µM
- MIC [6]: ≥ 67.4 µM
- MIC [7]: 6.74 µM (≈ 10 µg/mL)
- MIC [8]: 6.74 µM (≈ 10 µg/mL)
- MIC (Bacillus cereus IFO 3514): ≥ 269 µM
- MIC [9]: ≥ 101 µM
- MIC [10]: 6.74 µM (≈ 10 µg/mL)
- MIC [11]: 6.74 µM (≈ 10 µg/mL)
- MIC [12]: ≥ 269 µM
- MIC (Candida boidinii MIP 104): 6.74 µM (≈ 10 µg/mL)
- MIC [13]: 6.74 µM (≈ 10 µg/mL)
- MIC [14]: ≥ 33.7 µM
SMILES: NC(N)=NCCC[C@H](NC(=O)[C@H](Cc1cnc[nH]1)NC(=O)[C@H](CCCN=C(N)N)NC(=O)[C@H](Cc1cnc[nH]1)NC(=O)[C@H](CCCN=C(N)N)NC(=O)[C@H](Cc1cnc[nH]1)NC(=O)[C@H](CCCN=C(N)N)NC(=O)[C@H](Cc1cnc[nH]1)NC(=O)[C@@H](N)CCCN=C(N)N)C(=O)N[C@@H](Cc1cnc[nH]1)C(=O)O [RHRHRHRHRH]

- MIC (Fusobacterium nucleatum): ≥ 50 µM
- MIC [15]: 20 µM (≈ 27.5 µg/mL)
- MIC [16]: 25 µM (≈ 34.3 µg/mL)
- MIC [17]: ≥ 40 µM
- MIC [18]: ≥ 50 µM
- MIC [19]: 12.5 µM (≈ 17.2 µg/mL)
- MIC [20]: 25 µM (≈ 34.3 µg/mL)
- MIC (Cutibacterium acnes): 12.5 µM (≈ 17.2 µg/mL)
- MIC [21]: 6 µM (≈ 8.24 µg/mL)
- MIC [22]: ≥ 40 µM
- MIC [23]: 20 µM (≈ 27.5 µg/mL)
- MIC [24]: 10 µM (≈ 13.7 µg/mL)
- MIC [25]: 40 µM (≈ 54.9 µg/mL)
- MIC [26]: ≥ 50 µM
- MIC [27]: ≥ 50 µM
- MIC [28]: 160 µM (≈ 220 µg/mL)
- MIC [29]: ≥ 100 µM
- MIC (Bacteroides fragilis): ≥ 50 µM
- MIC [30]: 40 µM (≈ 54.9 µg/mL)
- MIC [31]: 20 µM (≈ 27.5 µg/mL)
- MIC [32]: ≥ 160 µM
- MIC [33]: ≥ 80 µM
- MIC [34]: 25 µM (≈ 34.3 µg/mL)
- MIC [35]: ≥ 50 µM
- MIC (Clostridium septicum): ≥ 50 µM
SMILES: CC[C@H](C)[C@H](NC(=O)[C@H](CO)NC(=O)[C@H](CO)NC(=O)[C@H](CC(C)C)NC(=O)[C@@H](N)Cc1ccccc1)C(=O)NCC(=O)N[C@@H](CCCCN)C(=O)N[C@H](C(=O)N[C@@H](CC(C)C)C(=O)NCC(=O)N[C@@H](CC(N)=O)C(=O)N[C@@H](CC(C)C)C(=O)N[C@@H](CC(C)C)C(N)=O)[C@@H](C)CC [FLSSIGKILGNLL]

From DBAASP
